In patent US8697684B2, “Azetidinyl diamides as monoacylglycerol lipase inhibitors” (Janssen Pharmaceutica NV, priority 2009, dated 2014):

Test system: rat
Test: CFA-Induced Paw Radiant Heat Hypersensitivity
Format: in vivo
Conditions: CFA thermal hypersensitivity, 30 mg/kg p.o., HPβCD, group mean values, last time point 180 or 300 min
Procedure: Each rat was placed in a test chamber on a warm glass surface and allowed to acclimate for approximately 10 min. A radiant thermal stimulus (beam of light) was then focused through the glass onto the plantar surface of each hind paw in turn. The thermal stimulus was automatically shut off by a photoelectric relay when the paw was moved or when the cut-off time was reached (20 sec for radiant heat at ˜5 amps). An initial (baseline) response latency to the thermal stimulus was recorded for each animal prior to the injection of complete Freund's adjuvant (CFA). 24 h following intraplantar CFA injection, the response latency of the animal to the thermal stimulus was then re-evaluated and compared to the animal's baseline response time. […] Post-compound treatment withdrawal latencies were assessed at fixed time intervals, typically 30, 60, 120, 180, and 300 min.
The percent reversal (% R) of hypersensitivity was calculated in one of two different ways: 1) using group mean values or 2) using individual animal values. […]
Method 1. For all compounds, the % R of hypersensitivity was calculated using the mean value for groups of animals at each time point according to the following formula: % reversal=[(group treatment response−group CFA response)/(group baseline response−group CFA response)]×100 Results are given for the maximum % reversal observed for each compound at any time point tested. […]

## O=C(c1ccc(-c2cccc(C(F)(F)F)c2)c(Cl)c1)N1CC(N2CCN(C(=O)c3cscn3)CC2)C1 [Cpd 1102]
  Method 1: peak % reversal: 38%
